Columns and labels:
[1] = target: T1, Catalytic domains of human DNMT 3a/3L enzyme (Homo sapiens, UniProt Q9Y6K1); experiment: DNMT inhibition assay (3H-SAM filter plate scintillation), DNMT 3a/3L; format: biochemical; conditions: Poly(dIdC) DNA 0.002 mg/mL, H3 SAM 500 nM, 30 min pre-incubation without SAM, 37° C. 1 h; read-out: DNMT 3a/3I IC50
T1 construct: Catalytic domains of human DNMT 3a/3L enzyme were produced by Accelagen; purchased Accelagen
Protocol: (§1) Catalytic domains of human DNMT 3a/3L enzyme were produced by Accelagen. Human full-length DNMT1 enzyme purchased from BPS Biosciences. Poly(dldC) DNA (Sigma) was used at 0.002 mg/mL. H3 SAM (Perkin Elmer) was used at 500 nM. DNA, DNMT enzyme, and inhibitors were mixed with assay buffer (20 mM Tris pH8, 5% glycerol, 1 mM EDTA, 100 μg/mL BSA, 1 mM DTT, 50 mM NaCl) and pre-incubated without SAM for 30 min. H3 SAM was then added to initiate the methylation reaction which continues at 37° C. for 1 h. Reaction mixture was then transferred to a filter plate (Millipore Multiscreen HTS DE), then washed with 50 mM H2PO4 and 95% Ethanol. Scintillation counts were measured on the Perkin Elmer Microbeta scintillation counter.

[2] = target: T2, Human full-length DNMT1 enzyme (Homo sapiens, UniProt P26358); experiment: DNMT inhibition assay (3H-SAM filter plate scintillation), DNMT1; format: biochemical; conditions: Poly(dIdC) DNA 0.002 mg/mL, H3 SAM 500 nM, 30 min pre-incubation without SAM, 37° C. 1 h
T2 construct: Human full-length DNMT1 enzyme purchased from BPS Biosciences; purchased BPS Biosciences
Protocol: as §1

T1 sequence (Q9Y6K1 634-912 limits assumed): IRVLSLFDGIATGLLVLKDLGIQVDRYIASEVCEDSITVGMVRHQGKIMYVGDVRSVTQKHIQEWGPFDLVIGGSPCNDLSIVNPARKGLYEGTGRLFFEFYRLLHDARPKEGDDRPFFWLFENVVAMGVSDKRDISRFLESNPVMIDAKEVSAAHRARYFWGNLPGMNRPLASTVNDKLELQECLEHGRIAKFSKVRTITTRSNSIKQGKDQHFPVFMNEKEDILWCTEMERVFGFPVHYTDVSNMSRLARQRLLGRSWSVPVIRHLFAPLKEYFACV
T1 sequence (Q9UJW3 178-386 partner limits assumed): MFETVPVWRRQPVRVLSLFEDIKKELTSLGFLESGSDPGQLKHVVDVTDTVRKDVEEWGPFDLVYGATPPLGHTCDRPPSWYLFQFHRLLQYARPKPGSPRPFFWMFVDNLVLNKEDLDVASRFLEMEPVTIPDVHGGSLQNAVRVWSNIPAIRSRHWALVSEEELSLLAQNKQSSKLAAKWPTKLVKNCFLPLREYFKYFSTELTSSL
T2 sequence (P26358 whole entry): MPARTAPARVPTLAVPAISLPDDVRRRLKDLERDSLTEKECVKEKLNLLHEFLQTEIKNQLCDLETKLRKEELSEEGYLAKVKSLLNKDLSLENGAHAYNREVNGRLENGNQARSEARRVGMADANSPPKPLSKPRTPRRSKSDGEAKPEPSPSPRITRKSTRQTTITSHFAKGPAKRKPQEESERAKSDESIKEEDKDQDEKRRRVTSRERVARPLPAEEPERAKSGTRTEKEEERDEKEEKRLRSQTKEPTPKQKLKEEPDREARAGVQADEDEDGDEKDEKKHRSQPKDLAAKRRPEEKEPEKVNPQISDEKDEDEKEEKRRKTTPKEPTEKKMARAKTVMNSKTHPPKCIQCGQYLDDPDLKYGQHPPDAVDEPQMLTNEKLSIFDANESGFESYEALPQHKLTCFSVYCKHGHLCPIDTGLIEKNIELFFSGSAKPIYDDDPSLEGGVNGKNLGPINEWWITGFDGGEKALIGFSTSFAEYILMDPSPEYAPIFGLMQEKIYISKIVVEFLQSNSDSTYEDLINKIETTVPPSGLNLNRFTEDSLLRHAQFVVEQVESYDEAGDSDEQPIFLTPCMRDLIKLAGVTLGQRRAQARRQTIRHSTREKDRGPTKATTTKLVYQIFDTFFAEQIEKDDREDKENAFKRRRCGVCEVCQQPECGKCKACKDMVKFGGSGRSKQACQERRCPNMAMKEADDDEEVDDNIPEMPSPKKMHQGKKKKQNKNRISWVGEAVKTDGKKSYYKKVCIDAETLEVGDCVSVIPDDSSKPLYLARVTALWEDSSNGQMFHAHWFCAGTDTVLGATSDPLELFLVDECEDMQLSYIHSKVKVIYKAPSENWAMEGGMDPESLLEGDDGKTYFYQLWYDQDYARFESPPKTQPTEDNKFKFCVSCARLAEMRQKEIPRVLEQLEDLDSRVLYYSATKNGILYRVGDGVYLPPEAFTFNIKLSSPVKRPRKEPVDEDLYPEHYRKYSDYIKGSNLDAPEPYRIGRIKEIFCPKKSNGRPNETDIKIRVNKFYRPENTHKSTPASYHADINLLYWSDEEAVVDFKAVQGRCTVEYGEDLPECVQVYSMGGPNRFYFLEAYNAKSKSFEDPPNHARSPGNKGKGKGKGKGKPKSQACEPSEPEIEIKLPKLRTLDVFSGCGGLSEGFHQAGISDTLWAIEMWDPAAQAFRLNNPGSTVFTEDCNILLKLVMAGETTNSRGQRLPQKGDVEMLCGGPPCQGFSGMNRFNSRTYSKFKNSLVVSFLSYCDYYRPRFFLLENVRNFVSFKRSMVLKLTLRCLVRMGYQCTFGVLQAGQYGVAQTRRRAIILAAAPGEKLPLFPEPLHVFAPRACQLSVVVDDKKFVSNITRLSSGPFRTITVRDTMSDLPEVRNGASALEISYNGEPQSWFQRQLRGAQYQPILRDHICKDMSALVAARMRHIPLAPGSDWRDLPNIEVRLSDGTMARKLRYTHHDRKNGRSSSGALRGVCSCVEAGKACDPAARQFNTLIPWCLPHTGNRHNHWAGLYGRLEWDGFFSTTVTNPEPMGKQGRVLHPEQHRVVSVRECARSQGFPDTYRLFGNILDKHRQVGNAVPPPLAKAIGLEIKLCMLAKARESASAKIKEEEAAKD

Row | IC50 [1] [µM] | IC50 [2] [µM] | SMILES
1 | 95 |  | Nc1ncnc2c1ncn2[C@H]1O[C@@H](CSCCNc2ccnc(Cl)n2)[C@H](O)[C@@H]1O [Example 2, (2S,3S,4R,5R)-2-(6-Amino-9H-purin-9-yl)-5-(((2-((2-chloropyrimidin-4-yl)amino)ethyl)thio)methyl)tetrahydrofuran-3,4-diol]
2 | 24 | 49 | C=CC(=O)NCCSC[C@@H]1O[C@H](n2cnc3c(N)ncnc32)[C@@H](O)[C@H]1O [Example 5, N-(2-((((2R,3R,4S,5S)-5-(6-Amino-9H-purin-9-yl)-3,4-di hydroxytetrahydrofuran-2-yl)methyl)thio)ethyl)acrylamide]
3 | 26 |  | Nc1ncnc2c1ncn2[C@H]1O[C@@H](CSCCNc2ccncn2)[C@H](O)[C@@H]1O [Example 3, (2S,3S,4R,5R)-2-(6-Amino-9H-purin-9-yl)-5-(((2-(pyrimidin-4-ylamino)ethyl)thio)methyl)tetrahydrofuran-3,4-diol]
4 | 60 | 48 | Nc1ncnc2c1ncn2[C@H]1O[C@@H](CSCCNc2cc(Cl)ncn2)[C@H](O)[C@@H]1O [Example 4]
5 | 3 | > 300 | Nc1ncnc2c1ncn2[C@H]1O[C@@H](CSCCNc2nccc(Cl)n2)[C@H](O)[C@@H]1O [Example 1, (2S,3S,4R,5R)-2-(6-Amino-9H-purin-9-yl)-5-(((2-((4-chloropyrimidin-2-yl)amino)ethyl)thio)methyl)tetrahydrofuran-3,4-diol]
